Literature values in paper PMC5028780, “Receptor and transporter binding and activity profiles of albiflorin extracted from Radix paeoniae Alba” (Scientific Reports, 2016).

Columns and labels:
5-HT2C sites = tested on: 5-HT2C sites; design: method as in PMID 11454919, PMID 10621762; details: antagonist properties; cited from earlier work
h5-HT2C receptors = details: reference not given; cited from earlier work

| Structure (SMILES) | affinity at 5-HT2C sites (5-HT2C sites) | affinity for h5-HT2C receptors (h5-HT2C receptors) |
| --- | --- | --- |
| CN(C)CCCN1c2ccccc2CCc2ccc(Cl)cc21 [clomipramine] | modest affinities | – |
| CN(C)CCCC1(c2ccc(F)cc2)OCc2cc(C#N)ccc21 (stereo not drawn) [citalopram] | modest affinities | – |
| CCOc1ccccc1OC(c1ccccc1)C1CNCCO1 (stereo not drawn) [Reboxetine] | – | mild affinity |
